Results as given in publication PMC8286840, “Identifying SARS-CoV-2 antiviral compounds by screening for small molecule inhibitors of Nsp3 papain-like protease” (Biochemical Journal, 2021).
Structures can show the parent of a compound that is named as a salt. Where two headings read alike, the source gives them in different places.

Key:
[1] = biological target: T1, SARS-CoV-2 PLpro (nsp3 1564–1878) (Severe acute respiratory syndrome coronavirus 2, UniProt P0DTD1); assay: biochemical; design: FRET-quenched peptide (Pro3) cleavage by PLpro, 10 min pre-incubation, slope over 20 min, normalised to no-compound control; conditions: low concentration screen, read-out: % of control remaining
[2] = biological target: T1, SARS-CoV-2 PLpro (nsp3 1564–1878); assay: biochemical; design: FRET-quenched peptide (Pro3) cleavage by PLpro, 10 min pre-incubation, slope over 20 min, normalised to no-compound control; conditions: high concentration screen, read-out: % of control remaining

## Nc1ccc(CNc2ncnc3c2ncn3[C@@H]2O[C@H](CO)[C@@H](O)[C@H]2O)cc1 [N-[(4-Aminophenyl)methyl]adenosine]
[1]; Well no.=8319
  remaining activity at 1.25 µM: 104%
[1]; Well no.=8895
  remaining activity at 1.25 µM: 102%
[2]; Well no.=8319
  remaining activity at 3.75 µM: 100%
[2]; Well no.=8895
  remaining activity at 3.75 µM: 99.6%

## Cc1ccccc1C(C(=O)NC1CCCCC1)N(C(=O)Cn1ccnc1C)c1cccc(F)c1 (stereo not drawn) [N-cyclohexyl-2-(N-(3-fluorophenyl)-2-(2-methyl-1H-imidazol-1-yl)acetamido)-2-(o-tolyl)acetamide]
[1]; Well no.=5600
  remaining activity at 1.25 µM: 93.6%
[2]; Well no.=5600
  remaining activity at 3.75 µM: 95.4%

## O=C(Nc1cccc(C(F)(F)F)c1)Nc1cc(S(=O)(=O)NC2CC2)ccc1-c1ccsc1 [N-cyclopropyl-4-(thiophen-3-yl)-3-(3-(3-(trifluoromethyl)phenyl)ureido)benzenesulfonamide]
[1]; Well no.=5549
  remaining activity at 1.25 µM: 100%
[2]; Well no.=5549
  remaining activity at 3.75 µM: 103%

## COc1nc(OCc2cccc(-c3ccccc3)c2C)ccc1CNCCN [N-deacetylated BMS-202]
[1]; Well no.=8458
  remaining activity at 1.25 µM: 102%
[2]; Well no.=8458
  remaining activity at 3.75 µM: 100%

## C[C@@H]1c2cc(O)c(O)cc2CCN1C [N-methyl-R-salsolinol hydrobromide]
[1]; Well no.=830
  remaining activity at 1.25 µM: 99.6%
[2]; Well no.=830
  remaining activity at 3.75 µM: 101%

## C[C@H](C#Cc1ccc(Cc2ccc(F)cc2)s1)N(O)C(N)=O [N-{(1R)-3-[5-(4-fluorobenzyl)-2-thienyl]-1-methyl-2-propynyl}-N-hydroxyurea]
[1]; Well no.=5434
  remaining activity at 1.25 µM: 99.4%
[2]; Well no.=5434
  remaining activity at 3.75 µM: 103%

## CON(C)C(=O)[C@H](O)[C@H](Cc1ccccc1)NC(=O)c1cc2cc(Cl)ccc2[nH]1 [N-{(1S,2R)-1-benzyl-2-hydroxy-3-[methoxy(methyl)amino]-3-oxopropyl}-5-chloro-1H-indole-2-carboxamide]
[1]; Well no.=6057
  remaining activity at 1.25 µM: 100%
[2]; Well no.=6057
  remaining activity at 3.75 µM: 97.9%

## CC(C)S(=O)(=O)N[C@H]1CCOC[C@@H]1c1ccc(-c2ccc(C#N)s2)cc1 [N-{(3R,4S)-3-[4-(5-cyano-2-thienyl)phenyl]tetrahydro-2H-pyran-4-yl}-2-propanesulfonamide]
[1]; Well no.=6010
  remaining activity at 1.25 µM: 100%
[2]; Well no.=6010
  remaining activity at 3.75 µM: 92.7%

## COc1ccccc1N1CCN(CCCCN2C(=O)c3ccccc3C2=O)CC1 [NAN-190 (hydrobromide)]
[1]; Well no.=7191
  remaining activity at 1.25 µM: 98.5%
[2]; Well no.=7191
  remaining activity at 3.75 µM: 94.2%

## COc1ccccc1N1CCN(CCCCN2C(=O)c3ccccc3C2=O)CC1 [NAN-190 hydrobromide]
[1]; Well no.=1141
  remaining activity at 1.25 µM: 97%
[2]; Well no.=1141
  remaining activity at 3.75 µM: 99.5%

## CCOc1ccc(-n2c([C@@H](C)N(Cc3cccnc3)C(=O)Cc3ccc(F)c(C(F)(F)F)c3)nc3ncccc3c2=O)cc1 [NBI-74330]
[1]; Well no.=8611
  remaining activity at 1.25 µM: 108%
[2]; Well no.=8611
  remaining activity at 3.75 µM: 97.8%

## NS(=O)(=O)c1cccc2c1c([N+](=O)[O-])cc1nc(O)c(O)nc12 [NBQX disodium]
[1]; Well no.=942
  remaining activity at 1.25 µM: 101%
[2]; Well no.=942
  remaining activity at 3.75 µM: 98%

## O=C(O)/C=C/C(O)c1ccc(Cl)cc1 (stereo not drawn) [NCS-356]
[1]; Well no.=807
  remaining activity at 1.25 µM: 102%
[2]; Well no.=807
  remaining activity at 3.75 µM: 101%

## O=C(O)/C=C1\CCCc2ccccc2C1O (stereo not drawn) [NCS-382]
[1]; Well no.=903
  remaining activity at 1.25 µM: 101%
[2]; Well no.=903
  remaining activity at 3.75 µM: 99.9%

## CC(C)CCn1c(CN2CCN(C(=O)C3CC3)CC2)nc2c1c(=O)n(C)c(=O)n2C [NCT-501]
[1]; Well no.=8532
  remaining activity at 1.25 µM: 105%
[2]; Well no.=8532
  remaining activity at 3.75 µM: 98.9%

## Cc1cc(C)nc(NC(=S)N2CCN(Cc3ccc(C(F)(F)F)cc3)CC2)c1 [NCT-503]
[1]; Well no.=8538
  remaining activity at 1.25 µM: 96.7%
[2]; Well no.=8538
  remaining activity at 3.75 µM: 93.8%

## CC(=O)Oc1ccccc1C(=O)Oc1ccc(CO[N+](=O)[O-])cc1 [NCX 4040]
[1]; Well no.=6087
  remaining activity at 1.25 µM: 99.1%
[2]; Well no.=6087
  remaining activity at 3.75 µM: 99.2%

## O=C(Nc1cc(C(=O)Nc2ccc(S(=O)(=O)O)cc2S(=O)(=O)O)cc(C(=O)Nc2ccc(S(=O)(=O)O)cc2S(=O)(=O)O)c1)Nc1cc(C(=O)Nc2ccc(S(=O)(=O)O)cc2S(=O)(=O)O)cc(C(=O)Nc2ccc(S(=O)(=O)O)cc2S(=O)(=O)O)c1 [NF449 octasodium salt]
[1]; Well no.=1095
  remaining activity at 1.25 µM: 97.6%
[2]; Well no.=1095
  remaining activity at 3.75 µM: 98.3%

## O=C(Nc1cccc(C(=O)Nc2ccc(S(=O)(=O)O)c3cc(S(=O)(=O)O)cc(S(=O)(=O)O)c23)c1)Nc1cccc(C(=O)Nc2ccc(S(=O)(=O)O)c3cc(S(=O)(=O)O)cc(S(=O)(=O)O)c23)c1 [NF 023]
[1]; Well no.=813
  remaining activity at 1.25 µM: 88.1%
[2]; Well no.=813
  remaining activity at 3.75 µM: 89.2%

## Nc1ccc2ncnc(NCCc3ccc(Oc4ccccc4)cc3)c2c1 [NF-kB Activation Inhibitor]
[1]; Well no.=2566
  remaining activity at 1.25 µM: 97.6%
[2]; Well no.=2566
  remaining activity at 3.75 µM: 98.5%

## NC(=NCCC[C@H](N)C(=O)O)NO [NG-Hydroxy-L-arginine acetate]
[1]; Well no.=660
  remaining activity at 1.25 µM: 96.5%
[2]; Well no.=660
  remaining activity at 3.75 µM: 96.5%

## CNC(=N)NCCC[C@H](N)C(=O)O [NG-Monomethyl-L-arginine acetate]
[1]; Well no.=886
  remaining activity at 1.25 µM: 102%
[2]; Well no.=886
  remaining activity at 3.75 µM: 103%

## COC(=O)[C@@H](N)CCCNC(=N)N[N+](=O)[O-] [NG-Nitro-L-arginine methyl ester hydrochloride]
[1]; Well no.=1001
  remaining activity at 1.25 µM: 99.6%
[2]; Well no.=1001
  remaining activity at 3.75 µM: 98.3%

## N=C(NCCC[C@H](N)C(=O)O)N[N+](=O)[O-] [NG-Nitro-L-arginine]
[1]; Well no.=857
  remaining activity at 1.25 µM: 99.8%
[2]; Well no.=857
  remaining activity at 3.75 µM: 101%

## O=C(NCCCCN1CCN(c2cccc(Cl)c2Cl)CC1)c1ccc2c(c1)Cc1ccccc1-2 [NGB 2904 hydrochloride]
[1]; Well no.=5407
  remaining activity at 1.25 µM: 97.8%
[2]; Well no.=5407
  remaining activity at 3.75 µM: 101%

## Cc1cnc(NC(=O)c2cc(S(=O)(=O)N(C)C)ccc2N2CCCC2)s1 [NGI-1]
[1]; Well no.=7684
  remaining activity at 1.25 µM: 103%
[2]; Well no.=7684
  remaining activity at 3.75 µM: 103%

## CCCCCCCCCCCCCCCCn1cc[n+](Cc2ccccc2)c1C [NH 125 - 1-Hexadecyl-2-methyl-3-(phenylmethyl)-1H-imidazolium iodide]
[1]; Well no.=2336
  remaining activity at 1.25 µM: 97.5%
[2]; Well no.=2336
  remaining activity at 3.75 µM: 97%

## O=C(N[C@H]1CCN(C(=O)c2cc(C(F)(F)F)cc(C(F)(F)F)c2)[C@H](Cc2ccc(Cl)cc2)C1)c1ccnc2ccccc12 [NKP608]
[1]; Well no.=8427
  remaining activity at 1.25 µM: 93.4%
[2]; Well no.=8427
  remaining activity at 3.75 µM: 92.6%

## C[C@@]1(O)[C@H](O)[C@@H](CO)O[C@H]1n1ccc(N)nc1=O [NM107]
[1]; Well no.=8897
  remaining activity at 1.25 µM: 99.5%
[2]; Well no.=8897
  remaining activity at 3.75 µM: 100%

## CN1CCC(NC(=O)c2cc(-c3c(O)cc(O)cc3Oc3ccc([N+](=O)[O-])cc3)on2)CC1 [NMS-E973]
[1]; Well no.=8620
  remaining activity at 1.25 µM: 94.8%
[2]; Well no.=8620
  remaining activity at 3.75 µM: 89.2%

## CC1(NC2=NS(=O)(=O)c3sc(Cl)cc3N2)CC1 [NN414]
[1]; Well no.=5436
  remaining activity at 1.25 µM: 103%
[2]; Well no.=5436
  remaining activity at 3.75 µM: 104%

## O=C(O)C1=CCCN(CCON=C(c2ccccc2)c2ccccc2)C1 [NO-711 hydrochloride]
[1]; Well no.=1149
  remaining activity at 1.25 µM: 92.4%
[2]; Well no.=1149
  remaining activity at 3.75 µM: 88.4%
